Broadly, the inhibition is how much of the control response was suppressed.

In series [1] the target is T1, hERG (human ether-a-go-go related gene potassium channel, KCNH2) (Homo sapiens, UniProt Q12809).
T1 construct: expressed in transfected cells; host or cells: HEK293
In words: hERG channel whole-cell patch clamp (Ion Channel Activity Measurement). Type of series: cell-based. The settings on record: human, HEK293 cells expressing the human ERG potassium channel, room temperature; for inhibition at 1 μM: pH 7.4, 1 μM test article; for inhibition at 10 μM: pH 7.4, 10 μM test article. On the procedure: HEK293 cell line expressing the human ERG (ether-a-go-go related gene) potassium channel (Potassium voltage-gated channel subfamily H member 2). cDNA strictly similar to GenBank accession number: NM_000238
(§1) Cells expressing channels were cultured in medium supplemented with 20% FBS in HAM'S F12 culture dish. Cells grew in a humidified incubator at 37° C. under 5% carbon dioxide. To passage cells, remove poor medium and rinse the cells once with PBS 1X. […] Place plate on a 37° C. warming incubator 5 min. As soon as cells are detached, add 5 ml of 37° C. complete medium. Draw cell suspension into a sterile pipet and homogenize cells gently to dissociate cells aggregates. Amplify or maintain the cells by seeding 2.5*105 cells in a 6 cm dish (final volume: 5 ml). To maintain electrophysiological performances, cell density must not exceed 80%. On the day before patch clamp experiment, 3*103 cells were seeded on coverslips in the 24-well plate and incubated at 37° C. in 5% carbon dioxide.
(§2) Glass pipette (BF150-86-10, Sutter Instruments) was made by puller (P97, Sutter Instruments). The glass pipette was manipulated using Micro-manipulator (Carm-C-S, MCI Instruments) under the microscope (AE31EF-INV, Motic). After touching the cell, a slight suction was applied to achieve high seal (GΩ). Fast capacitance (in pF) compensation was made after high seal was achieved; after achieving high seal, the membrane was broken, Cell capacitance (in pF) compensation was made from whole-cell capacitance compensation after the whole cell mode was achieved. No leak subtraction was made.
(§3) Cell was incubated with the test article for 5 minutes, or until the current reached a steady-state level. Multiple concentrations of test article were tested. The test articles were applied gradually from low to high concentration. The test and control solutions were flown into a recording chamber mounted on the stage of an inverted microscope via a gravity-fed solution delivery system. During the experiment, solutions were withdrawn from the recording chamber by vacuum aspiration. Each concentration was tested at multiple times. Each cell acted as its own control. All tests were performed at room temperature (23-25° C.).
hERG current was recorded under a holding potential at −80 mV and then depolarized to 30 mV for 2.5 seconds to activate the hERG channel. The peak tail currents were induced by a repolarizing pulse to −50 mV for 4 seconds. This voltage-clamp pulse protocol was performed continuously during the experiment. An interpulse interval of 10 seconds allowed recovery from inactivation. An interpulse of −50 mV test for 0.5 second before 30 mV depolarized step was included for leak current correction
In general terms: Block of hERG is tested as a sign of cardiac risk.

For series [2], the target named is T2, CaV1.2 (L-type voltage-dependent calcium channel; CACNA1C, CACNB2, CACNA2D1) (Homo sapiens, UniProt Q13936).
T2 construct: expressed in transfected cells; host or cells: CHO
The series can be described thus: CaV1.2 channel whole-cell patch clamp (Ion Channel Activity Measurement). Type of series: cell-based. The settings on record: human, room temperature; for inhibition at 5 min, 1 μM: pH 7.4, 1 μM test article; for inhibition at 5 min, 10 μM: pH 7.4, 10 μM test article, read-out: CaV 1.2 10 μM (ion-channel inhibition). On the procedure: • CHO cell line stably expressing human calcium channel, voltage-dependent, L type, • CACNA1C: cDNA strictly similar to GenBank accession number: NM_000719 • CACNB2: cDNA strictly similar to GenBank accession number: NM_000724 • CACNA2D1: cDNA strictly similar to GenBank accession number: NM_000722 Iks Channel Cell Line:
as §1
Bath solution: 140 mM TEA-C1, 2 mM MgCl2·6H2O, 10 mM CaCl2, 10 mM HEPES, 5 mM D-glucose, pH=7.4 with TEA-OH. Pipette solution: 120 mM CsCl, 1 mM MgCl2·6H2O, 10 mM HEPES, 10 mM EGTA, 0.3 mM Na2-GTP, 4 mM Mg-ATP, pH=7.2 with CsOH.
as §2, §3
Cav1.2 current was recorded under a holding potential at −80 mV and then depolarized to +10 mV for 0.3 seconds. This protocol was repeated at 20 s intervals to observe the effect of test articles on the peak of Cav1.2 current.
A general note: Patch clamp records ionic current or voltage across a cell membrane.

T1 sequence (Q12809 whole entry): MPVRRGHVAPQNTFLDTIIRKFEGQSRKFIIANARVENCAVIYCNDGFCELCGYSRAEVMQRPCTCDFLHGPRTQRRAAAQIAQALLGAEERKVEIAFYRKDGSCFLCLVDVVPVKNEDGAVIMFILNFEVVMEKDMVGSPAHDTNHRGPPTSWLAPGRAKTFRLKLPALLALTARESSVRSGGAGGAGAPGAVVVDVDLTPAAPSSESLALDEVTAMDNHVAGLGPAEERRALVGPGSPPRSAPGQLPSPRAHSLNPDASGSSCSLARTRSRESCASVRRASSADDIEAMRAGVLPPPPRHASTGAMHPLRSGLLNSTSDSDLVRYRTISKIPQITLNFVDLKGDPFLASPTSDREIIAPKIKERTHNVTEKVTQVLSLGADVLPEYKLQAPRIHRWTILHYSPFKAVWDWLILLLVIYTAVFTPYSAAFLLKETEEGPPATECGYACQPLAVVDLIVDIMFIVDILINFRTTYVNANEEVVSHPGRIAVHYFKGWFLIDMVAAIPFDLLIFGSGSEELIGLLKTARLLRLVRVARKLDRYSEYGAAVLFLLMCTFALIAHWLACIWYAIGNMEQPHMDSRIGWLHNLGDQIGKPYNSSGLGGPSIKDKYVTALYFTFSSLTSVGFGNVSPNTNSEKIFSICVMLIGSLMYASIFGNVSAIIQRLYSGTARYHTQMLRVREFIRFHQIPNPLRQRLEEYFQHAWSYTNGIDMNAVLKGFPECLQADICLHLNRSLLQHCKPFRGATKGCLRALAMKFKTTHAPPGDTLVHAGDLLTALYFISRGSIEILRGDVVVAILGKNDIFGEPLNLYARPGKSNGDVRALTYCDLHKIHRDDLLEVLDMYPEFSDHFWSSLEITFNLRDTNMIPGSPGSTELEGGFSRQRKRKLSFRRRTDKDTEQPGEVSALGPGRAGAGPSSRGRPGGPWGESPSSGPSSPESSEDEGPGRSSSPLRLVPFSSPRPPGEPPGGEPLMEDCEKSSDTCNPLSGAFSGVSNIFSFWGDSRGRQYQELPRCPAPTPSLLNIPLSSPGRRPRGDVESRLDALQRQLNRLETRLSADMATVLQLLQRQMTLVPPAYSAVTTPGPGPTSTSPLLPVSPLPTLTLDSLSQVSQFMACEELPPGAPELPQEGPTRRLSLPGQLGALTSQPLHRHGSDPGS
T2 sequence (Q13936 1-2138 isoform Q13936-12): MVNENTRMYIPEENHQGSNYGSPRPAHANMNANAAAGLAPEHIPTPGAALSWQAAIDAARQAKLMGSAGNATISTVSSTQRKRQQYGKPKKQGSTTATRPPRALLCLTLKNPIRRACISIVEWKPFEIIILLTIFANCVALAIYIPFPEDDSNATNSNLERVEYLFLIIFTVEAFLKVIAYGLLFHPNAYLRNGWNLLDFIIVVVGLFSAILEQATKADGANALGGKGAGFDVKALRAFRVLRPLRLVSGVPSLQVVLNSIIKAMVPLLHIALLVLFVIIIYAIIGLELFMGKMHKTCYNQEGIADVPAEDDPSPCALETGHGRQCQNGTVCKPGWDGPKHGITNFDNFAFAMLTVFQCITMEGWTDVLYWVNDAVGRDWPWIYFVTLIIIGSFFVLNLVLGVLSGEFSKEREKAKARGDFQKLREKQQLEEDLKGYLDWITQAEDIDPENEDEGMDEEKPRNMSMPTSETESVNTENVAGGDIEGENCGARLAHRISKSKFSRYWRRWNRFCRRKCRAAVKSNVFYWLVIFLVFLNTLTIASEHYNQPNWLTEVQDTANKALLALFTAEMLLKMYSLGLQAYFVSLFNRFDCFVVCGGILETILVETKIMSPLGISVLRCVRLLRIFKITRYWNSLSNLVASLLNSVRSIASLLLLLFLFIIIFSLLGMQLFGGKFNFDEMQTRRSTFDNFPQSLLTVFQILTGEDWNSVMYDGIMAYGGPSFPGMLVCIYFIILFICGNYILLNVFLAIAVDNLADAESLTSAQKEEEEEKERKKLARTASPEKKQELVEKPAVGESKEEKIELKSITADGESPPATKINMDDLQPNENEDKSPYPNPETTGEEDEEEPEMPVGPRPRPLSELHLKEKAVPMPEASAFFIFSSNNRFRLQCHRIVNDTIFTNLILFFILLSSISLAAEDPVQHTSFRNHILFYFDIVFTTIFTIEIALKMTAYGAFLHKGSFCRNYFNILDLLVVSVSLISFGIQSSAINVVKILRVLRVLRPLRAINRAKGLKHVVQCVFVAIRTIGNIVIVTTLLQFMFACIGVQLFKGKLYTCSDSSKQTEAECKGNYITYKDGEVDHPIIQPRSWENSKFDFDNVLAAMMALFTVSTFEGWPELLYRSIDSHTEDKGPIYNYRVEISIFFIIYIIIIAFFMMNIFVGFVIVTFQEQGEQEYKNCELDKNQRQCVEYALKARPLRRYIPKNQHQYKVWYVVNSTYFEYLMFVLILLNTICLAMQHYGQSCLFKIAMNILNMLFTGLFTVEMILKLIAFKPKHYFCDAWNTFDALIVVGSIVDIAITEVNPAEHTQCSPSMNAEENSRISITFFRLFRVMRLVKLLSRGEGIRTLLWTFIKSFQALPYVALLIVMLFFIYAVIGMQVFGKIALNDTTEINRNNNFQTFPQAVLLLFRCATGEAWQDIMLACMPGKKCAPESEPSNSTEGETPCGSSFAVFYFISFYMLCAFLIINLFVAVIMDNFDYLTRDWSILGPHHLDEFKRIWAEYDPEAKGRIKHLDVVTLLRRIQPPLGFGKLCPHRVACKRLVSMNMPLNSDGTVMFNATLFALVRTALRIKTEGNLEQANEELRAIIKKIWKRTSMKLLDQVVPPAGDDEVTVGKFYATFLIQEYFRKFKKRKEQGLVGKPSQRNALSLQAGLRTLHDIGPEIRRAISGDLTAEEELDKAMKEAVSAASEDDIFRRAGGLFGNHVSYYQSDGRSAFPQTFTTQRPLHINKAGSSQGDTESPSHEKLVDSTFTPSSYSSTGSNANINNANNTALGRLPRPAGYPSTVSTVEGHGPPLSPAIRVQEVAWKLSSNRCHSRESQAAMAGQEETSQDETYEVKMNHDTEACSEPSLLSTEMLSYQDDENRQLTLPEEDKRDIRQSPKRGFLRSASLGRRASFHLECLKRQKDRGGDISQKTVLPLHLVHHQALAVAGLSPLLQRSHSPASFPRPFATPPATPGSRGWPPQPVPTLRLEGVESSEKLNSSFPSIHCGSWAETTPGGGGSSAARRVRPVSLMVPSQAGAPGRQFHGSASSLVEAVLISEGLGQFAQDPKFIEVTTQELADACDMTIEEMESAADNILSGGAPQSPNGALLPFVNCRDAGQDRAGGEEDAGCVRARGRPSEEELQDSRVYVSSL
T2 sequence (Q08289 1-605 isoform Q08289-2 partner): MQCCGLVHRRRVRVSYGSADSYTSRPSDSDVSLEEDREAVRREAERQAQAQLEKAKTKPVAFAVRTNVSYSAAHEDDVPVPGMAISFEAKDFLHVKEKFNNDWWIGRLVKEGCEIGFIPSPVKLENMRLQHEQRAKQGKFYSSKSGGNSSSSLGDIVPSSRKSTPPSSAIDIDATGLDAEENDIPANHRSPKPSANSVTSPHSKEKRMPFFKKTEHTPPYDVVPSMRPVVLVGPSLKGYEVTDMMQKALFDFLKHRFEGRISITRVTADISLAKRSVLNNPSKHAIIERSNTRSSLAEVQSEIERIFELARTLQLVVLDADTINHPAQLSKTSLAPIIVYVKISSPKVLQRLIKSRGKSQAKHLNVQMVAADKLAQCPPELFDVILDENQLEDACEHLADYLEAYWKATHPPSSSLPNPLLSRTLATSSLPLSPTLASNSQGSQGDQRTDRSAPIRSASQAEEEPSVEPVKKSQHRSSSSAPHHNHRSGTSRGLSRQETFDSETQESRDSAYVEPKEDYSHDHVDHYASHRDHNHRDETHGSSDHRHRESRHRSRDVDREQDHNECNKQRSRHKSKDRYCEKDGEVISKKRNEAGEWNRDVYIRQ
T2 sequence (P54289 25-1091 isoform P54289-2 partner limits assumed): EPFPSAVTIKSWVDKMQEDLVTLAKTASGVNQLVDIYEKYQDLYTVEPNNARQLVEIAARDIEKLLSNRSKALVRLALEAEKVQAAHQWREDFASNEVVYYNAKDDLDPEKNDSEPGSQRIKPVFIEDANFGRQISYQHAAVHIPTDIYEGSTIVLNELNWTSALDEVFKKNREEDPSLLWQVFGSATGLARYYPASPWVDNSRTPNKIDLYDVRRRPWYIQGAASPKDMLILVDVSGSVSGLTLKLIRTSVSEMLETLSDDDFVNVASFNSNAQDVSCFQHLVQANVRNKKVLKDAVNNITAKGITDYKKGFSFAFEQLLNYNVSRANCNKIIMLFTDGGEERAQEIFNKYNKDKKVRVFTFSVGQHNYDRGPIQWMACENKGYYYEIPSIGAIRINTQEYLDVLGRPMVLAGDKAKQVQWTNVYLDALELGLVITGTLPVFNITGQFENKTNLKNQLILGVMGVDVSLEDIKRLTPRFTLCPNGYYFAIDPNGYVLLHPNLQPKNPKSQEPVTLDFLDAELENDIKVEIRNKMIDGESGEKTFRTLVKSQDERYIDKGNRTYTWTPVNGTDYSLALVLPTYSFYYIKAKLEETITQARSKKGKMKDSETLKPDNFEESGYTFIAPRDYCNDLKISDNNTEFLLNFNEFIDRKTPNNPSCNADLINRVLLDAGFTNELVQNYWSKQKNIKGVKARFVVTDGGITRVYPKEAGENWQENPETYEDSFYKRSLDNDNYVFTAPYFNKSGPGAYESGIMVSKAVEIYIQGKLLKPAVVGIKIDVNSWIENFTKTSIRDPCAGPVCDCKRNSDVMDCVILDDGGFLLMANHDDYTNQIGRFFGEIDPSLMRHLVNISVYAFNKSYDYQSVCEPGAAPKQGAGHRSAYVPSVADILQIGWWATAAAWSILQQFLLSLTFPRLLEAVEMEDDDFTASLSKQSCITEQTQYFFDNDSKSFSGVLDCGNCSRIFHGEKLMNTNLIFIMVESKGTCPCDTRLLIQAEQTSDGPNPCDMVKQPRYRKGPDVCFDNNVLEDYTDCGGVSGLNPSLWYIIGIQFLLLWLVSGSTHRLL
T2 sequence (P54289 957-1103 partner limits assumed): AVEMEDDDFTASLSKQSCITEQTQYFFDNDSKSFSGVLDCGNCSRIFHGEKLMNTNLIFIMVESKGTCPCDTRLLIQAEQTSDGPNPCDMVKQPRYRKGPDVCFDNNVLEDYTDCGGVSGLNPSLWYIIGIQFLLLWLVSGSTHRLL

For `CCOc1ccc2ccccc2c1Cc1c(OCCN2CCCC2)ccc2ccccc12` [Compound A255, 1-(2-((1-((2-ethoxynaphthalen-1-yl)methyl)naphthalen-2-yl)oxy)ethyl)pyrrolidine], in series [1], the inhibition at 1 μM lay within 75 to 100% and the inhibition at 10 μM is 75 to 100%. Further, in series [2], the inhibition at 5 min, 1 μM was below 25% and the inhibition at 5 min, 10 μM fell in the range of 75 to 100%.

In the case of `CS(=O)(=O)Nc1ccc2ccccc2c1Cc1c(O)ccc2ccccc12` [Compound A025, N-(1-((2-hydroxynaphthalen-1-yl)methyl)naphthalen-2-yl)methanesulfonamide], in series [1], the inhibition at 1 μM was below 25% and the inhibition at 10 μM is 25 to 50%. In series [2], the inhibition at 5 min, 1 μM is below 25% and the inhibition at 5 min, 10 μM fell in the range of 25 to 50%.

In series [1], `CC(C)Oc1ccc2ccccc2c1Cc1c(OCCN2CCCC2)ccc2ccccc12` [Compound A256, 1-(2-((1-((2-isopropoxynaphthalen-1-yl)methyl)naphthalen-2-yl)oxy)ethyl)pyrrolidine] gave an inhibition at 1 μM of 50 to 75% and an inhibition at 10 μM of 75 to 100%. In series [2], the inhibition at 5 min, 1 μM is below 25% and the inhibition at 5 min, 10 μM lay within 75 to 100%.

For the compound `CC(C)(O)c1cc2ccccc2c(Cc2c(O)c(C(C)(C)O)cc3ccccc23)c1O` [Compound A047, 1,1′-methylenebis(3-(2-hydroxypropan-2-yl)naphthalen-2-ol)], in series [1], the inhibition at 1 μM was below 25%. For the same compound, in series [2], the inhibition at 5 min, 1 μM was below 25% and the inhibition at 5 min, 10 μM was in the range of 50 to 75%.

In the case of `Oc1ccc2ccccc2c1Cc1c(OCCN2CCOCC2)ccc2ccccc12` [Compound A130, 1-((2-(2-morpholinoethoxy)naphthalen-1-yl)methyl)naphthalen-2-ol], in series [1], the inhibition at 1 μM was below 25% and the inhibition at 10 μM lay in the range of 75 to 100%. Moreover, in series [2], the inhibition at 5 min, 1 μM was in the range of 25 to 50% and the inhibition at 5 min, 10 μM is 75 to 100%.

In series [1], `CCN(CC)CCOc1ccc2ccccc2c1Cc1c(O)c(C)cc2ccccc12` [Compound A098, 1-((2-(2-(diethylamino)ethoxy)naphthalen-1-yl)methyl)-3-methylnaphthalen-2-ol] had an inhibition at 1 μM of 25 to 50% and an inhibition at 10 μM of 75 to 100%. Besides, in series [2], the inhibition at 5 min, 1 μM was below 25% and the inhibition at 5 min, 10 μM was below 25%.

In series [1], `CCN(CC)CCNC(=O)c1ccc2ccccc2c1Cc1c(OC)ccc2ccccc12` [Compound A238, N-(2-(diethylamino)ethyl)-1-((2-methoxynaphthalen-1-yl)methyl)-2-naphthamide] had an inhibition at 1 μM of 75 to 100% and an inhibition at 10 μM of 75 to 100%. Besides, in series [2], the inhibition at 5 min, 1 μM lay in the range of 25 to 50% and the inhibition at 5 min, 10 μM fell in the range of 75 to 100%.

In series [1], `CCN(CC)CCOc1c(C)cc2ccccc2c1Cc1c(O)c(C)cc2ccccc12` [Compound A108, 1-((2-(2-(diethylamino)ethoxy)-3-methylnaphthalen-1-yl)methyl)-3-methylnaphthalen-2-ol] returned an inhibition at 1 μM below 25% and an inhibition at 10 μM below 25%. Besides, in series [2], the inhibition at 5 min, 1 μM was below 25% and the inhibition at 5 min, 10 μM was in the range of 25 to 50%.

For the compound `O=C(O)c1ccc2c(Cc3c(O)ccc4ccccc34)c(O)ccc2c1` [Compound A114, 6-hydroxy-5-((2-hydroxynaphthalen-1-yl)methyl)-2-naphthoic acid], in series [1], the inhibition at 1 μM is below 25% and the inhibition at 10 μM lay within 50 to 75%. For the same compound, in series [2], the inhibition at 5 min, 1 μM is below 25% and the inhibition at 5 min, 10 μM was below 25%.

Regarding `CCOCOc1cccc2c1C(=O)CCC2` [Compound A076, 8-(ethoxymethoxy)-3,4-dihydronaphthalen-1(2H)-one], in series [1], the inhibition at 1 μM was below 25% and the inhibition at 10 μM lay within 50 to 75%. In addition, in series [2], the inhibition at 5 min, 1 μM is below 25% and the inhibition at 5 min, 10 μM lay in the range of 25 to 50%.

For the compound `Oc1ccc2ccccc2c1Cn1c(O)nc2ccccc21` [Compound A056, 1-((2-hydroxynaphthalen-1-yl)methyl)-1H-benzo[d]imidazol-2-ol], in series [1], the inhibition at 1 μM was below 25% and the inhibition at 10 μM was below 25%. In addition, in series [2], the inhibition at 5 min, 1 μM is below 25% and the inhibition at 5 min, 10 μM was in the range of 25 to 50%.

In series [1], `CCN(CC)CC(=O)Nc1ccc2ccccc2c1Cc1c(OC)ccc2ccccc12` [Compound A284, 2-(diethylamino)-N-(1-((2-methoxynaphthalen-1-yl)methyl)naphthalen-2-yl)acetamide] showed an inhibition at 1 μM of 25 to 50%. Further, in series [2], the inhibition at 5 min, 1 μM is below 25% and the inhibition at 5 min, 10 μM was below 25%.

On to `CCOCOc1ccc2ccccc2c1Cc1c(OCC2CCNCC2)ccc2ccccc12` [Compound A279, 4-(((1-((2-(ethoxymethoxy)naphthalen-1-yl)methyl)naphthalen-2-yl)oxy)methyl)piperidine], for which, in series [1], the inhibition at 1 μM lay in the range of 75 to 100% and the inhibition at 10 μM was 75 to 100%. Besides, in series [2], the inhibition at 5 min, 1 μM was below 25% and the inhibition at 5 min, 10 μM was 75 to 100%.

On to `COCCOc1ccc2ccccc2c1Cc1c(OCCN2CCCC2)ccc2ccccc12` [Compound A258, 1-(2-((1-((2-(2-methoxyethoxy)naphthalen-1-yl)methyl)naphthalen-2-yl)oxy)ethyl)pyrrolidine], for which, in series [1], the inhibition at 1 μM lay in the range of 75 to 100% and the inhibition at 10 μM is 75 to 100%. Also, in series [2], the inhibition at 5 min, 1 μM is below 25% and the inhibition at 5 min, 10 μM fell in the range of 75 to 100%.

Turning to `NC(=O)c1ccc2c(Cc3c(O)ccc4cc(C(N)=O)ccc34)c(O)ccc2c1` [Compound A123, 5,5′-methylenebis(6-hydroxy-2-naphthamide)], in series [1], the inhibition at 1 μM is below 25% and the inhibition at 10 μM is 25 to 50%. Further, in series [2], the inhibition at 5 min, 1 μM was below 25% and the inhibition at 5 min, 10 μM is below 25%.

In series [1], `O=C(c1c(O)ccc2ccccc12)c1c(OCCN2CCCC2)ccc2ccccc12` [Compound A234, (2-hydroxynaphthalen-1-yl)(2-(2-(pyrrolidin-1-yl)ethoxy)naphthalen-1-yl)methanone] yielded an inhibition at 1 μM of 75 to 100% and an inhibition at 10 μM of 75 to 100%. Moreover, in series [2], the inhibition at 5 min, 1 μM was below 25% and the inhibition at 5 min, 10 μM fell in the range of 75 to 100%.

With `CN1CCC(COc2ccc3ccccc3c2Cc2c(O)ccc3ccccc23)C1` (stereo not drawn) [Compound A262, 1-((2-((1-methylpyrrolidin-3-yl)methoxy)naphthalen-1-yl)methyl)naphthalen-2-ol], in series [1], the inhibition at 1 μM is 75 to 100% and the inhibition at 10 μM was in the range of 75 to 100%. In series [2], the inhibition at 5 min, 1 μM was below 25% and the inhibition at 5 min, 10 μM is 75 to 100%.

Turning to `Oc1c(F)cc2ccccc2c1Cc1c(O)c(F)cc2ccccc12` [Compound A049, 1,1′-methylenebis(3-fluoronaphthalen-2-ol)], in series [1], the inhibition at 1 μM is below 25% and the inhibition at 10 μM is 50 to 75%. Also, in series [2], the inhibition at 5 min, 1 μM is below 25% and the inhibition at 5 min, 10 μM is 50 to 75%.

For the compound `O=C(O)c1ccc2ccccc2c1Cc1c(C(=O)O)ccc2ccccc12` [Compound A100, 1,1′-methylenebis(2-naphthoic acid)], in series [1], the inhibition at 1 μM is below 25% and the inhibition at 10 μM is below 25%. Further, in series [2], the inhibition at 5 min, 1 μM was below 25% and the inhibition at 5 min, 10 μM was below 25%.

Consider `O=C(O)c1ccc2ccccc2c1Cc1c(O)ccc2ccccc12` [Compound A106, 1-((2-hydroxynaphthalen-1-yl)methyl)-2-naphthoic acid], for which, in series [1], the inhibition at 1 μM is below 25% and the inhibition at 10 μM is below 25%. Besides, in series [2], the inhibition at 5 min, 1 μM is below 25% and the inhibition at 5 min, 10 μM is below 25%.

The values above are taken from patent US12187681B2 (Shanghai East Hospital, priority 2019, dated 2025).
